Laboratory results reported in publication PMC3660741, “Structure of a pore-blocking toxin in complex with a eukaryotic voltage-dependent K^+ channel” (eLife, 2013).

Legend:
[1] = tested on: Shaker K+ channel; conditions: cited from earlier work
Text: In studies with the BK channel, [MacKinnon and Miller (1988)] first observed that permeant ions coming through the channel from the intracellular side enhance the dissociation of a toxin bound to its receptor on the extracellular side.

[2] = biological target: Kv2.1 paddle–Kv1.2 chimera channel in complex with the rat β2-core subunit (rat) (UniProt P63142); experiment: planar lipid bilayer electrophysiology (inhibition of channel current)
[3] = tested on: Tyr445Phe(Shaker); conditions: ref Ranganathan et al., 1996, cited from earlier work
Text: Another case worth highlighting is the coupling energy, ∼1.5 kT, between the Lys27Met(AgTx2)–Tyr445Phe(Shaker) pair. Tyr445 in Shaker maps to Tyr373 in paddle chimera (Figure 2B; [Ranganathan et al., 1996]). Since mutation of Tyr to Phe incurs only a loss of the hydroxyl group, one likely interpretation of this would have been that Lys27 contacts the hydroxyl group of Tyr445. Intriguingly, Lys27 only contacts the backbone carbonyl oxygen of Tyr445, a point farthest from the hydroxyl group (Figure 10B). However, since this is a tightly packed part of the protein structure with the hydroxyl grou ...

[4] = biological target: T1, Kv2.1 paddle–Kv1.2 chimera channel (paddle chimera) (Rattus norvegicus, UniProt P63142, DEL270-295/F267Y/F302L/I268V/INS296[…]/L298I/N207Q/V299M/V301I); experiment: CTX inhibition of paddle chimera in planar lipid bilayer, dose-response fitted for Kd; type: biochemical; conditions: CsCl vs KCl on both sides; planar bilayer of 20 mg/ml DPhPC; holding −110 mV, pulsed to +110 mV; n = 2–4
T1 construct: made in house; host or cells: Pichia pastoris
Text: Figure 8. Effects of Lys27Met mutation of CTX and Cs^+ separately on toxin-channel interactions. (A) CTX inhibition. The fraction of unblocked current (I/Imax, mean ± SEM or range of mean; n = 2–4) is graphed as a function of CTX concentration (in nM) and fit to the equation I/Imax = 0.1 + 0.9 × (1 + [CTX]/Kd)^−1. Voltage pulses: holding −110 mV, depolarized to +110 mV, followed by a step back to −110 mV. Paddle chimera–wild-type CTX with KCl on both sides is shown in red, paddle chimera–wild-type CTX with CsCl on both sides is shown in blue and paddle chimera–Lys27Met CTX with KCl on both sides is shown in black. The modified equation accounts for approximately 10% current that is due largely to the channels facing the other side and are not blocked by toxin. (B) The pore domains from two diagonal subunits of paddle chimera (molecule A) in the Lys27MetCTX–paddle chimera complex are shown in green α carbon trace and a toxin-omit weighted 2Fo − Fc electron density map is shown in wire mesh at 1σ contour level. […]
The membranes were held at −110 mV and repeatedly pulsed to +110 mV test voltage. CTX inhibition data measured with different concentrations of CTX or Lys27Met mutant of CTX were fit to the equation: I/Imax=0.1+0.9×(1+[CTX]/Kd)^−1. […]

[5] = biological target: paddle chimera; conditions: planar lipid bilayers; ref Tao and MacKinnon, 2008; read-out: Kd (inhibition of paddle chimera); cited from earlier work
[6] = tested on: BK channel; conditions: 1988, cited from earlier work
Text: Charybdotoxin (CTX; Figure 1B), a pore-blocking toxin for K^+ channels, is a 37-residue peptide isolated from the venom of the scorpion Leiurus quinquestriatus ([Miller et al., 1985]).

[7] = tested on: Thr449Cys(Shaker); conditions: Gly10Val(AgTx2)–Thr449Cys(Shaker) pair; ref Ranganathan et al., 1996; cited from earlier work
Text: (§1) From analyzing mutants of AgTx2 and Shaker, MacKinnon and Ranganathan derived a coupling energy of >3 kT for the Gly10Val(AgTx2)–Phe425Gly(Shaker) pair and ∼1.5 kT for the Gly10Val(AgTx2)–Thr449Cys(Shaker) pair ([Ranganathan et al., 1996]). Phe425 and Thr449 in Shaker map onto Gln353 and Val377 in paddle chimera (Figure 2B).

[8] = tested on: Phe425Gly(Shaker); conditions: Gly10Val(AgTx2)–Phe425Gly(Shaker) pair; ref Ranganathan et al., 1996; cited from earlier work
Text: as §1

T1 sequence (P63142 with tags, fused parts or gaps with the stated changes): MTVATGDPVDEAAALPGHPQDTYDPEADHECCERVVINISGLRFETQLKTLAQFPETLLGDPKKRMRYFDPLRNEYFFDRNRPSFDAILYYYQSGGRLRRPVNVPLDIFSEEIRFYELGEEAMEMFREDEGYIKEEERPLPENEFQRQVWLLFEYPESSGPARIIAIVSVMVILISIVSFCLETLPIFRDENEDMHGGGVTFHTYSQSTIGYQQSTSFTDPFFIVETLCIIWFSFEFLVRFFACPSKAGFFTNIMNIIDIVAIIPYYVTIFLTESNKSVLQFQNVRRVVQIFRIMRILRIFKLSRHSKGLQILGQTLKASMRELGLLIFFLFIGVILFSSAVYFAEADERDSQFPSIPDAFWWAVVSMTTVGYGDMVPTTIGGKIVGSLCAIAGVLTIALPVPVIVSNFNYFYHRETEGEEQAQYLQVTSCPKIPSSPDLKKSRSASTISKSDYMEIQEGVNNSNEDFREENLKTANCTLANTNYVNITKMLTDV
T1 sequence (P62483 36-367 partner limits assumed): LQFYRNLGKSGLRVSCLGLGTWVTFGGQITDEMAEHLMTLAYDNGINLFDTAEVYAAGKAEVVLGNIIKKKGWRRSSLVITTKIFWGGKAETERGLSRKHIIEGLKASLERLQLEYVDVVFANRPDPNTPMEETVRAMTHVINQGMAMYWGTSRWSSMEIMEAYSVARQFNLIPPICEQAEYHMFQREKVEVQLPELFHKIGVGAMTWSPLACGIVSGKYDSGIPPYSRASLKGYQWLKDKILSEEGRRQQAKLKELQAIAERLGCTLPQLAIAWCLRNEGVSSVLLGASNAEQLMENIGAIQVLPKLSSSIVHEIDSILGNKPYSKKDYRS
Chain of charybdotoxin, wild type (P13487 23-59): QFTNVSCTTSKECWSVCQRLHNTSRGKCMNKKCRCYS

mutation of Lys27 to Arginine: conservative mutation of Lys27 to Arginine, literature CTX mutant (Goldstein et al., 1994)
destabilization of the toxin-channel complex ([1]; conservative mutation of Lys27 to Arginine, Shaker, ref Goldstein et al., 1994): ~1000 fold

charybdotoxin, wild type (from UniProt P13487 23-59) (peptide)
fold reduction of affinity in Cs+ against K+ [2]: 10 fold

Lys27Met(AgTx2): Lys27Met mutant of AgTx2 (Ranganathan et al., 1996)
K+ dependence of the interaction between the two residues ([3]; Lys27 (AgTx2) and Tyr445 (Shaker)): dependent on the K^+ concentration | coupling energy ([3]; Lys27Met(AgTx2)–Tyr445Phe(Shaker) pair): ~1.5 kT

charybdotoxin [CTX]
reduction in affinity in the presence of Cs+ compared to K+ [4]: ~10 fold | Kd [5]: ~20 nM | trans-enhanced dissociation effect of permeant ions on CTX block ([1]; ref Goldstein and Miller, 1993): subsequently confirmed for Shaker as well | channel states competent for toxin binding ([6]; ref Anderson et al.): both the open and closed states of the channel are competent for toxin binding | role of electrostatic interactions in affinity ([6]; ref Anderson et al.): electrostatic interactions play an important role in enhancing the toxin’s affinity | voltage dependence of affinity ([6]; results from trans-enhanced dissociation by permeant ions entering from the intracellular side, ref MacKinnon and Miller): voltage dependent

Gly10Val(AgTx2): Gly10Val mutant of AgTx2 (Ranganathan et al., 1996)
coupling energy [7]: ~1.5 kT | coupling energy [8]: > 3 kT
